Measured values taken from US7314959B2, “Amino thiol compounds and compositions for use in conjunction with cancer therapy” (Wisconsin Alumni Research Foundation, priority 2003, dated 2008).
Entries after “also recorded” stand apart in the source; their conditions may differ.

Experiments:
[1] = tested on: radiation-induced dermatitis on backs of rats; assay: Radiation-induced dermatitis in rat skin model; format: in vivo; settings: for protective effect against radiation-induced dermatitis (FIG. 8D): topical in carrier vehicle before 5.5 min Cs137 irradiation
Procedure: To determine efficacy of chemoprotective polyamines in preventing radiation-induced dermatitis, adult rats were topically treated with the compounds before and after radiation treatment. Rats were exposed to medically relevant levels of radiation that could induce clinical radiation dermatitis. Sprague Dawley rats (Harlan Spraque Dawley) at 4-6 weeks-old were anesthetized with sodium pentobarbital at 40 mg/kg body weight (Sigma, St. Louis, Mo.) prior to radiation exposure. A defined area (1.5×2 cm) on the backs of rats was irradiated using a Mark I, Model 30, Cs 137 irradiator (J. L. Sheppard & Associates). Before topical drug treatment or irradiation, the backs of the rats were clipped using an Oster clipper at the closest setting. The rest of the body was protected from radiation exposure using a lead shield (2.5 cm thick). A dose response study was initially performed to reproduce relevant dermatitis that matched the Grade (I-IV) scale used to score the severity of radiation-induced dermatitis in humans. The severity of the dermatitis was scored 12-13 days post-irradiation at the peak of the dermal inflammation. […] Radiation dermatitis of Grade II-III was considered most clinically relevant, so a radiation dose of 8.7 Gy was typically used in the rats. The clipped back region on the rats was treated topically with aminothiol in delivery vehicle four times in the two hours immediately preceding irradiation (at −2 hr, −1 hr, −30 min, and −10 min; irradiation was at 0 min
The polyamines or amino thiols were prepared in a delivery vehicle, consisting of ethanol:propylene glycol:water, ranging from 0:95:5 to 50:30:20 depending upon the solubility characteristics of the topical molecule, and the degree of dermal penetration desired. A vehicle composed of an emulsion formed by sonication of ‘nonionic liposomes’ and isopropyl myristate was also used (Jayaraman, S. et al., J. Pharm. Sci. 85:1082-1084, 1996). In a commonly used protocol, 220 μl of topical drug/vehicle was applied to an area ˜2 cm×3 cm on the back in the 2 hr just prior to irradiation. Rats treated with only the delivery vehicle served as controls. Twelve to thirteen days post-radiation, the rats were evaluated for dermatitis within the irradiated area. In early studies, a modified scoring scale described by Masuda K. et al., Int. J. Radiation Oncol. Biol. Phys: 12, 1645 (1986) was used, and in later studies, including those described here, a simplified scoring system was used in which the percentage of the irradiated, rectangular field covered with scrab material was estimated between 0 and 100% to provide scores on a scale between 0 and 100.
This example relates to the use of a rat skin model to evaluate the efficacy of two amino thiol compounds in preventing radiation-induced dermatitis. To test whether topically-applied aminothiols could prevent the radiodermatitis caused by external beam radiotherapy, the rodent model described in Example 3 was slightly modified. Briefly, the radiodermatitis model involved: • i) shaving the backs of 6-7 week old rats or mice; • ii) applying four topical doses of aminothiol in a delivery vehicle composed of ethanol:propylene glycol (PG):water in the 2 hr prior to irradiation; • iii) irradiating a small, 3 cm^2 (1.5×2 cm) area on the animal's back (through a window in a lead plate) with 8.7 Gy of γ radiation from a Cs^137 source; and • iv) scoring the severity of the dermatitis 12-13 days later, at the peak of the inflammatory skin reaction. Radiodermatitis severity was scored by estimating the percentage of the irradiated field that was covered by scrab material.
Methods: Treatments were applied as described in Example 6.

23SK human skin cells = assay: Protection of human skin cells against phosphoramide mustard; format: cell-based; settings: 4 mM preload 30 min, phosphoramide mustard 40 min
Procedure: An in vitro cell culture assay was developed to determine the ability of chemoprotective polyamines, chemoprotective amino thiols and other molecules to confer radioprotection or chemoprotection to human skin cells. Diploid, human foreskin fibroblasts (23SK cells) were maintained in DMEM supplemented with 20% fetal bovine serum and gentamycin. For toxicity experiments, cells were seeded at a density of 750 cells/100 μl of DMEM+20% FBS+gentamycin into each well of 96 well plates (Corning, Corning, N.Y.). The next day, solutions of protective drug molecules, typically at 4 mM concentration, were prepared in Dulbecco's phosphate-buffered saline (D-PBS); each stock was titrated back to pH 7.0-7.5, if necessary, using sterile HCl or NaOH. Media was aspirated from cell wells, wells were rinsed with D-PBS, and loading solutions were then added to wells. Cells were typically exposed to loading solutions for 30 min. Following this drug loading period, plates were either placed directly into a Shepherd Mark II Cs^137 irradiator for irradiation (38 min), or wells were aspirated and the solution immediately replaced with a solution of D-PBS containing 350 μM phosphoramide mustard (obtained from NCI Chemical Repository) for a 40 min incubation at room temperature. After either treatment, wells were aspirated, rinsed and then given 100 μl of DMEM+20% FBS+gentamycin. Plates were maintained in 5% CO2 within a humidified chamber within a humidified incubator for 4-5 days at 37° C. […] of MTT solution (Promega Corp., Madison, Wis.) was then added to each well, and color development occurred over the next 3 hr at 37° C. Absorbance at 490 nm was then determined using a plate reader, and cell growth in treated wells compared to cell growth in wells loaded with vehicle and not irradiated or exposed to phosphoramide mustard was plotted using GraphPad software.

[2] = tested on: primary, human skin fibroblasts; assay: Cell cycle block in human skin fibroblasts (flow cytometry); format: cell-based; settings: for cell cycle block (phase): log-phase human fibroblast cultures; for reversibility of cell cycle block: upon washout or removal of the drug
Procedure: (§1) Methods (Cell cycle and p21 western): The cell culture experiments were done using primary, human skin fibroblasts, one strain of which (BJ cells) was obtained from ATCC (American Type Culture Collection). […] For flow cytometry and p21 experiments, cells were plated at 0.5×10^6 cells/150 mm plate, and 24 hr later, drug molecules (4100 μM PrC-210, 600 μM cysteamine, 205 μM cysteamine analog, 0.4 μg/ml colcemid) were added to medium. […] (Cancer Research. 61(21):7754-62, 2001). As per the cited reference, cells were fixed, treated with RNAse, and stained with propidium iodide for flow cytometry, or cells were extracted, proteins electrophoresed, and probed with anti-p21 antibody (#SXM-30) for western blot analysis.

p21 in human fibroblasts = assay: p21 western blot in human skin fibroblasts; format: cell-based; settings: IC70 concentration of PrC-210 (4100 μM); cysteamine 600 μM; 30 hour exposure
Procedure: as §1

cell cycle = settings: Jeitner and Renton 1996; Snyder and Grdina 2000; Kramer et al. 1997; cited from earlier work
cells in tissue culture = settings: Purdie 1979; cited from earlier work
[3] = tested on: Phase I/Phase II/Phase III drug metabolizing/exporting gene products in neonate rat skin; assay: Nucleic acid arrays of topically treated neonate rat skin; format: in vivo; settings: topical treatment of neonate rat skin for 3-6 days
Excerpt: Two examples of genes whose expression was induced following topical β-naphthaflavone treatment included, glutathione S-transferase (several separate isoforms that conjugate/detoxify drug electrophiles), and MRP (mdr-related protein, drug exporting membrane pump).

mouse skin = settings: cited from earlier work

Row | SMILES | effect on radiation dermatitis ([1]; 600-1200 mM applied to backs of rats two hours prior to radiation) | protective effect on cell growth against phosphoramide mustard (FIG. 8B) (23SK human skin cells) | cell cycle block (phase) [2] | reversibility of cell cycle block [2] | p21 expression (p21 in human fibroblasts) | cell cycle arrest reported in literature (cell cycle) | radioprotector activity when added to cells in tissue culture (cells in tissue culture) | number of Phase I/Phase II/Phase III drug metabolizing/exporting gene products activated [3] | protective effect against radiation-induced dermatitis (FIG. 8D) [1] | effect of systemic drug on radiation-induced skin damage (mouse skin; systemic, mice, Lowy et al. 1972) | protective effect when applied topically to mouse skin (mouse skin; topical, Verhey et al. 1983) | effect of topical application on radiation-induced skin damage (mouse skin; topical, mice, Lowy et al. 1972)
1 | NCCS [cysteamine] | eliminate radiation dermatitis | conferred a protective effect | cell cycle block in G2; also recorded: G2 cell cycle block that could not be reversed | not reversible | does not induce such expression | arrest in G2/M | active as a radioprotector | – | – | – | – | –
2 | O=c1cc(-c2ccccc2)oc2ccc3ccccc3c12 [β-naphthaflavone] | – | – | – | – | – | – | – | at least 40 | – | – | – | –
3 | NCCCNCCSP(=O)(O)O [amifostine] | – | not significantly different than that seen in the vehicle control | G2 cell cycle block that could not be reversed | – | – | arresting cells in the G2 phase | – | – | lack of a protective effect | effective in reducing radiation-induced skin damage | no protective effect | showed no protective effect
4 | NCCCNCCS [WR-1065] | – | not significantly different than that seen in the vehicle control | cell cycle block in G2; also recorded: G2 cell cycle block that could not be reversed | not reversible | – | arresting cells in the G2 phase | active as a radioprotector | – | lack of a protective effect | – | – | –
